The SangsterLogP compilation

Test: method code SF, from DOI: 10.1002/jps.2600650919, PMID: 966149
Settings: pH 7.4

Structure (SMILES)	logD
CC12CCC(=O)C=C1CCC1C3CCC4(CCC(=O)O4)C3(C)CC3OC312 (stereo not given)	1.96
CC12CCC(=O)C=C1CCC1C3CCC4(CCC(=O)O4)C3(C)CC(O)C12F (stereo not given)	2.4
CCOC(=O)C1CC2=CC(=O)CCC2(C)C2CCC3(C)C(C4CCC(=O)O4)CCC3C12 (stereo not given)	2.54
CC12CCC(=O)C=C1C1(CC1)CC1C2CCC2(C)C1CCC21CCC(=O)O1 (stereo not given)	3.15
CC(=O)SC1CC2=CC(=O)CCC2(C)C2CCC3(C)C(CCC34CCC(=O)O4)C12 (stereo not given)	2.78
COC(=O)C1CC2=CC(=O)CCC2(C)C2CCC3(C)C(CCC34CCC(=O)O4)C12 (stereo not given)	2.18
CC12CCC(=O)C=C1CC(C#N)C1C2CCC2(C)C1CCC21CCC(=O)O1 (stereo not given)	1.67
CC12CCC(=O)C=C1C1CC1C1C2CCC2(C)C1CCC21CCC(=O)O1 (stereo not given)	3.08
CC12CCC(=O)C=C1C=CC1C2CCC2(C)C1CCC21CCC(=O)O1 (stereo not given)	2.68
CC(C)OC(=O)C1CC2=CC(=O)CCC2(C)C2CCC3(C)C(C4CCC(=O)O4)CCC3C12 (stereo not given)	2.82
